Measured values taken from US20110129548A1, “Immunopotentiating Compositions Comprising Beta-1, 3/1, 6-D-Glucan and Uses Thereof” (BioAgra, LLC, priority 2006, published 2011).

Assays:
[1] = test system: macrophage cell line RAW264 cells; assay: Hydrogen peroxide production by RAW264 macrophages; format: cell-based, murine; conditions: 1 h; for Fluorescence: control 229.00 ± 4.54
Description: To determine hydrogen peroxide production, macrophage cell line RAW264 cells were plated into 96 well tissue culture plates and cultured until confluent in phenol red-free alpha-minimum essential medium, supplemented with 10% fetal bovine serum. Once confluence was reached, the media was removed, the cells were washed, and substrate and test substances were added. To insure cell number uniformity at confluence, cell numbers were determined in 8 wells; if the number of cells differed by more than 10% the plate was not used. Following an incubation period of exactly 1h the reaction was stopped and resulting fluorescence measured with an ELISA-reader at λmax, excitation=312 nm, λmax, emission=420 nm. Zymosan, the residue from a hot alcoholic extraction of yeast, and curdlan, a linear beta-1,3-D-glucan, were used as positive controls.

[2] = test system: blood cells (WBC, RBC, MON, PMN); assay: Effect of Vitamin D plus beta-1,3/1,6-D-glucan on blood cells (differential cell count); format: in vivo; conditions: rabbits, capsules for 9 weeks
Description: To determine the effect of Vitamin D plus beta-1,3/1,6-D-glucan (AGRASTIM®) on the immunocompetence of an animal, rabbits (10 per group) were given capsules of equal weight comprising 10 mg of beta-1,3/1,6-D-glucan (AGRASTIM®), 10 mg of beta-1,3/1,6-D-glucan (AGRASTIM®) plus 50 IU of Vitamin D, or 50 IU Vitamin D for 9 weeks. At the end of 9 weeks the number of white blood cells (WBCs), red blood cells (RBCs), mononuclear cells (MONs), and polymorphonuclear cells (PMNs) were determined by differential cell count.

[3] = percent with the control set to 100

Substance | H2O2-Release ([1]; dose 10 μg/assay) [nmol] | Fluorescence ([1]; dose 10 μg/assay) [arbitrary units] | H2O2-Release ([1]; dose 50 μg/assay) [nmol] | Fluorescence ([1]; dose 50 μg/assay) [arbitrary units] | increase of PMNs [2] [%] | increase of WBCs above control [2] | increase of the number of RBCs [2] | MON [2, 3] [%] | PMN [2, 3] [%] | RBC [2, 3] [%] | WBC [2, 3] [%]
CURDLAN | 0.76 | 254.00 ± 1.02 | 1.06 | 345.00 ± 6.48 | – | – | – | – | – | – | –
Vitamin D | – | – | – | – | 29 | no effect | neither beta-1,3/1,6-D-glucan alone nor Vitamin D had significant effects | 83 | 129 | 84 | 100
